Assay results as given in US20100041103A1, “COMPOSITION AND METHOD FOR ENHANCING CELL GROWTH AND CELL FUSION” (DO-COOP TECHNOLOGIES LTD., priority 2007, published 2010).
Counter-ions that a name gives are not always drawn. Ends that are not written are not given here.

Experiments:
[1] = cited from earlier work
[2] = Dissolving CD-Dau, Daunorubicine and t-boc (Example 9); format: physicochemical
Procedure: 5 different glass vials were prepared: • 1. 5 mg CD-Dau+1.2 ml Neowater™. • 2. 1.8 mg CD-Dau+600 μl acetone. • 3. 1.8 mg CD-Dau+150 μl acetone+450 μl Neowater™ (25% acetone). • 4. 1.8 mg CD-Dau+600 μl 10% *PEG (Polyethylene Glycol). • 5. 1.8 mg CD-Dau+600 μl acetone+600 μl Neowater™.
The samples were vortexed and spectrophotometer measurements were performed on vials #1, 4 and 5
The vials were left opened in order to evaporate the acetone (vials #2, 3, and 5).
2 mg Daunorubicine+1 ml Neowater™ was prepared in one vial and 2 mg of Daunorubicine+1 ml RO was prepared in a second vial.
1.14 ml of EtOH was added to one glass vial containing 18.5 mg of t-boc (an oily material). This was then divided into two vials and 1.74 ml Neowater™ or RO water was added to the vials such that the solution comprised 25% EtOH. Following spectrophotometer measurements, the solvent was evaporated from the solution and Neowater™ was added to both vials to a final volume of 2.31 ml in each vial. The solutions in the two vials were merged to one clean vial and packaged for shipment under vacuum conditions.

[3] = Dissolving retinol in Neowater, absorbance and filtration (Example 12); format: physicochemical
Procedure: Retinol (vitamin A) was purchased from Sigma (Fluka, 99% HPLC). Retinol was solubilized in Neowater™ under the following conditions.
1% retinol (0.01 gr in 1 ml) in EtOH and Neowater™
0.5% retinol (0.005 gr in 1 ml) in EtOH and Neowater™
0.5% retinol (0.125 gr in 25 ml) in EtOH and Neowater™.
0.25% retinol (0.0625 gr in 25 ml) in EtOH and Neowater™. Final EtOH concentration: 1.5%
Absorbance spectrum of retinol in EtOM: Retinol solutions were made in absolute EtOH, with different retinol concentrations, in order to create a calibration graph; absorbance spectrum was detected in a spectrophotometer.
2 solutions with 0.25% and 0.5% retinol in Neowater with unknown concentration of EtOH were detected in a spectrophotometer. Actual concentration of retinol is also unknown since some oil drops are not dissolved in the water.
Filtration: 2 solutions of 0.25% retinol in Neowater™ were prepared, with a final EtOH concentration of 1.5%.The solutions were filtrated in […] filter.

[4] = Solubilization of taxol in DMSO or Neowater with 17% EtOH (Example 15); format: physicochemical; settings: 0.5 mM; Neowater with 17% EtOH
Procedure: Solubilization: 0.5 mM Taxol solution was prepared (0.0017 gr in 4 ml) in either DMSO or Neowater™ with 17% EtOH. Absorbance was detected with a spectrophotometer.

293T cells = test: Cell viability assay, trypan blue count after taxol; format: cell-based; settings: taxol dissolved in Neowater, 1.666 μM, 24 hour treatment
Procedure: Cell viability assay: 150,000 293T cells were seeded in a 6 well plate with 3 ml of DMEM medium. Each treatment was grown in DMEM medium based on RO or Neowater™. […] The cells were harvested following a 24 hour treatment with taxol and counted using trypan blue solution to detect dead cells.

[5] = Taxol in Neowater by slow solvent exchange, spectrophotometry and HPLC after storage (Example 18); format: physicochemical; settings: taxol dispersed in Neowater, 6 month storage at −20° C., HPLC
Procedure: Solubilization: 0.5 mM Taxol solution was prepared (0.0017 gr in 4 ml). Taxol was dissolved in ethanol and exchanged to Neowater™ using an RT slow solvent exchange procedure which extended for 20 days. […] The solution was sterilized using a 0.2 μm filter. Taxol was separately prepared in DMSO (0.5 mM). Both solutions were kept at −20° C. Absorbance was detected with a spectrophotometer.

[6] = Solubilization of peptides in Neowater (Example 11); format: physicochemical; settings: at 0.5 mM
Description: Spectrophotometric measurements were taken.

COc1cccc2c1C(=O)c1c(O)c3c(c(O)c1C2=O)C[C@@](O)(C(C)=O)C[C@@H]3O[C@H]1C[C@H](N)[C@H](O)[C@H](C)O1 [Daunorubicine, Cerubidine hydrochloride]
solubility in water (known) [1]: known not to dissolve in water | dissolving in Neowater and RO ([2]; 2 mg in 1 ml): dissolves without difficulty

CC1=C(/C=C/C(C)=C/C=C/C(C)=C/CO)C(C)(C)CCC1 [Retinol]
retinol in the solutions following filtration ([3]; 0.25% retinol in Neowater, 1.5% EtOH, filtered (0.44 and 0.2 filter)): less than 0.03125% | retinol concentration in EtOH with similar absorbance pattern ([3]; nominal 0.25% retinol in Neowater): ~0.03125% | retinol concentration in EtOH with similar absorbance pattern ([3]; nominal 0.5% retinol in Neowater): ~0.125%

CC(=O)O[C@H]1C(=O)[C@@]2(C)[C@H]([C@H](OC(=O)c3ccccc3)[C@]3(O)C[C@H](OC(=O)[C@H](O)[C@@H](NC(=O)c4ccccc4)c4ccccc4)C(C)=C1C3(C)C)[C@]1(OC(C)=O)CO[C@@H]1C[C@@H]2O [Taxol, Paclitaxel]
dissolving in DMSO and Neowater [4]: dissolved both in DMSO and Neowater™ | cytotoxic effect (293T cells): comprised a cytotoxic effect | structural changes of the formulation on storage [5]: no structural changes

Daidzein—daunomycin conjugate [CD-Dau]
solubility in water (known) [1]: known not to dissolve in water | dissolving, Vial #3 (25% acetone) ([2]; 1.8 mg + 150 μl acetone + 450 μl Neowater): didn't dissolve very well | dissolving, Vial #4 (10% PEG+Neowater) ([2]; 1.8 mg + 600 μl 10% PEG): dissolved better than the CD-Dau in vial #1 | dissolving, Vial #2 (100% acetone) ([2]; 1.8 mg + 600 μl acetone): suspended inside the acetone | dissolving, Vial #5 (acetone exchanged for Neowater) ([2]; 1.8 mg + 600 μl acetone + 600 μl Neowater, as the acetone evaporated): partially sediment to the bottom of the vial | dissolving, Vial #1 (100% Neowater) ([2]; 5 mg + 1.2 ml Neowater): sedimented after a few hours

PFPSYKLRPG-NH2
dissolving in Neowater [6]: dissolved
